Measurements published in article PMC10321576, “Cyclic peptides target the aromatic cage of a PHD-finger reader domain to modulate epigenetic protein function” (Chemical Science, 2023).
Peptide text beside a SMILES is read from it.

Assays:
KDM7C Dual - ZB = KDM7C Dual - ZB (Homo sapiens, UniProt O75151); test: ITC binding
Procedure: (§1) Figure S10. ITC results: Tabulated values from 1:1 binding model and conditions
(§2) ITC buffer = 50 mM HEPES, 100 mM NaCl, pH 7.4, 0.2 µm filtered), at 25 °C. Dual = PHD+JmjC. HisTrx
(§3) = His 6+thioredoxin tag, GST = glutathione S -transferase tag, ZB = Z -basic tag. Syringe contained
(§4) peptide solution in buffer. Cell contained protein solution in buffer.
(§5) (1 picture or pasted object on this page, not shown here)

KDM7A PHD = target: T1, KDM7A PHD (Homo sapiens, UniProt Q6ZMT4); test: ITC binding
T1 construct: KDM7A 38-98; made in house
T1 sequence (Q6ZMT4 38-98): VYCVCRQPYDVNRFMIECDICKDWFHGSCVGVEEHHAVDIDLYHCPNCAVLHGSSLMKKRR
Procedure: as §1, §2, §3, §4, §5

KDM7A Dual = KDM7A Dual (Homo sapiens, UniProt Q6ZMT4); test: ITC binding
Sequence of KDM7A Dual (Q6ZMT4 38-386 limits assumed): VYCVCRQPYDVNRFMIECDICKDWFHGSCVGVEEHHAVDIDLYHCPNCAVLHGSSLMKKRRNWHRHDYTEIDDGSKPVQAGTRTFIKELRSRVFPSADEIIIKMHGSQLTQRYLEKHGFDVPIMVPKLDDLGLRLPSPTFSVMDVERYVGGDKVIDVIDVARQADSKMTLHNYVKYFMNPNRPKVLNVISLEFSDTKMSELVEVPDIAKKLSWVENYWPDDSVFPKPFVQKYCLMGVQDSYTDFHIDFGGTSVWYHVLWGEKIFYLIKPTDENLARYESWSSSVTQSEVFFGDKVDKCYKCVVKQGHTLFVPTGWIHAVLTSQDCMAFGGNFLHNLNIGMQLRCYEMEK
Procedure: as §1, §2, §3, §4, §5

KDM7C PHD = target: T2, KDM7C PHD (Homo sapiens, UniProt O75151); test: ITC binding; conditions: for Kd: 1:1 binding model
T2 construct: KDM7C 1-67; made in house
T2 sequence (O75151 1-67): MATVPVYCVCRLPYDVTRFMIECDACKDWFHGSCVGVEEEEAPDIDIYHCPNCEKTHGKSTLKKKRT
Procedure: as §1, §2, §3, §4, §5

HisTrx-DIDO PHD = target: T3, HisTrx-DIDO PHD (Homo sapiens, UniProt Q9BTC0); test: ITC binding; conditions: 50 mM HEPES, 100 mM NaCl, pH 7.4, 25 °C; 1:1 binding model
T3 construct: HisTrx-DIDO PHD
T3 sequence (Q9BTC0 268-322 limits assumed): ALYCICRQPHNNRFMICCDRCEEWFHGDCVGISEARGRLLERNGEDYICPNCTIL
Procedure: as §1, §2, §3, §4, §5

KDM7B Dual = target: T4, KDM7B Dual (Homo sapiens, UniProt Q9UPP1); test: ITC binding
T4 construct: Dual = PHD+JmjC; made in house
T4 sequence (Q9UPP1 37-483 limits assumed): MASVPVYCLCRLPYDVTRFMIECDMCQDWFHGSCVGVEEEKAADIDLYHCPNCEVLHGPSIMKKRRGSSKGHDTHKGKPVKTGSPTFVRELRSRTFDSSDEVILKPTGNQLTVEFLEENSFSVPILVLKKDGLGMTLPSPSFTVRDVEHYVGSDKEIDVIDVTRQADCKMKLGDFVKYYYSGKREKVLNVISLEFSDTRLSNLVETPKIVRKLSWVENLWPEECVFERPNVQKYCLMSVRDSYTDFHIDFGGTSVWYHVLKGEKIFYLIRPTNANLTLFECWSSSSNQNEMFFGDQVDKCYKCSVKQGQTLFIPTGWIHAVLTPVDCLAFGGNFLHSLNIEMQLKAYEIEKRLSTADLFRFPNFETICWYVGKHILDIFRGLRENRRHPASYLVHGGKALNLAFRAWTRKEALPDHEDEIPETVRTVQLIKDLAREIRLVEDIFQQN
Procedure: as §1, §2, §3, §4, §5

[1] = test system: SUP-T1 nuclear lysate proteins; test: Pull-down and proteomics from SUP-T1 nuclear lysate; assay type: binding; conditions: 1 μM OC9-Bt, 454 proteins identified
Procedure: Fig. 6 Selective capture of full-length KDM7 with OC9-Bt in nuclear lysates. (a) OC9-Bt, H3K4me3-Bt and Bt were used as affinity probes in HEK293T nuclear lysates, transiently transfected with wild type KDM7B, or PHD-finger mutant (Y14A, W29A). Capture was performed with 1 μM probe incubated in pre-cleared lysate, recovered with streptavidin-conjugated magnetic beads, then washed and eluted by heating in denaturing solution. 100-fold excess OC9 or OC9 V10A were used as competitors. […] (Left) Change in all protein (454) recoveries with competition by titration of unlabelled OC9. (Right) Volcano plot comparing relative abundance of pull-down content at 0 and 20 μM competition. The upper left quadrant indicates >5-fold difference in recovered protein (based on T-test difference of mean log 2 (LFQ) values) and p-value threshold <0.05.
A further chemoproteomic profiling analysis of endogenous protein capture by OC9-Bt from KDM7B-expressing T-cell lymphoblastic lymphoma SUP-T1 nuclear lysates[67] identified 454 proteins.

[2] = 50 mM HEPES, 100 mM NaCl, pH 7.4, 25 °C, 1:1 binding model

Sequence of KDM7C Dual - ZB (O75151 1-353 limits assumed): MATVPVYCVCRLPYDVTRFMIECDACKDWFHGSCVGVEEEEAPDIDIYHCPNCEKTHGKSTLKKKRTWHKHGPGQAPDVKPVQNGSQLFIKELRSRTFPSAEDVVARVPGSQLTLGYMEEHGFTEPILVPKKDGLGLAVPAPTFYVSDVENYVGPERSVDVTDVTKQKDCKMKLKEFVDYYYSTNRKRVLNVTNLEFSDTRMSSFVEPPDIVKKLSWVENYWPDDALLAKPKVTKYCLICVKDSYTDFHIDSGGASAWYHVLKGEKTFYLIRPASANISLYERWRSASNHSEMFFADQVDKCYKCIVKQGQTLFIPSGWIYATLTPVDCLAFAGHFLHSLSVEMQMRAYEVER

- ITC ΔH, KDM7C Dual - ZB (KDM7C Dual - ZB; 25 °C): -65.7 ± 3.1 kJ mol -1
- Kd (KDM7C Dual - ZB; read-out: ITC pKD, KDM7C Dual - ZB (converted)): 10 nM
- ITC N, KDM7C Dual - ZB (KDM7C Dual - ZB; stoichiometry): 1.19 ± 0.01
- Kd (KDM7A PHD; [2]): 33.4 nM
- ITC ΔH, KDM7A PHD (KDM7A PHD; 25 °C): -46.0 ± 1.3 kJ mol -1
- ITC N, KDM7A PHD (KDM7A PHD; stoichiometry): 0.71 ± 0.01
- Kd (KDM7A Dual; [2]): 34.3 nM
- ITC ΔH, KDM7A Dual (KDM7A Dual; 25 °C): -56.9 ± 4.3 kJ mol -1
- ITC N, KDM7A Dual (KDM7A Dual; stoichiometry): 0.92 ± 0.03
- Kd (KDM7C PHD; 50 mM HEPES, 100 mM NaCl, pH 7.4, 25 °C): 9.56 nM
- Kd (KDM7C PHD): 10 ± 4 nM
- ITC ΔH, KDM7C PHD (KDM7C PHD; 25 °C): -62.0 ± 1.0 kJ mol -1
- ITC N, KDM7C PHD (KDM7C PHD; stoichiometry): 1.09 ± 0.01
- ITC KD, HisTrx-DIDO PHD (HisTrx-DIDO PHD): no measurable affinity
- Kd (KDM7B Dual; [2]): 10.5 nM
- ITC ΔH, KDM7B Dual (KDM7B Dual; 25 °C): -46.0 ± 1.5 kJ mol -1
- ITC N, KDM7B Dual (KDM7B Dual; stoichiometry): 0.95 ± 0.02
Structure (SMILES): CC(C)C[C@@H]1NC(=O)[C@H](Cc2ccc(O)cc2)NC(=O)[C@H](Cc2ccc(O)cc2)NC(=O)CSC[C@@H](C(N)=O)NC(=O)[C@H]([C@@H](C)O)NC(=O)[C@H](CCCNC(=N)N)NC(=O)[C@H](Cc2ccccc2)NC(=O)[C@H](C(C)C)NC(=O)[C@H](CO)NC(=O)[C@@H]2CCCN2C(=O)[C@H](Cc2ccc(O)cc2)NC(=O)[C@@H]2CCCN2C(=O)[C@H](Cc2c[nH]cn2)NC(=O)[C@H]([C@@H](C)O)NC1=O [OC9] (HELM PEPTIDE1{[O=C(C[*:3])[*:2]].Y.Y.L.T.H.P.Y.P.S.V.F.R.T.C.[am]}$PEPTIDE1,PEPTIDE1,1:R3-15:R3$$$V2.0)
- proteins competed from OC9-Bt pull-down by titration of unlabelled OC9 [1]: Only the relative abundance of KDM7B and KDM7C were significantly affected
